Measurements published in patent US8841483B2, “Compositions useful as inhibitors of voltage-gated sodium channels” (Vertex Pharmaceuticals Incorporated, priority 2006, dated 2014).
Where two headings read alike, the source gives them in different places.

Assays:
NaV1.8 [1] = molecular target: T1, NaV1.8 (Homo sapiens, UniProt Q9Y5Y9); assay: Activity against NaV 1.8 channel (Table 3), optical membrane potential / electrophysiology assays; format: cell-based
Procedure: Compounds of the invention are useful as antagonists of voltage-gated sodium ion channels. Antagonist properties of test compounds were assessed as follows. Cells expressing the NaV of interest were placed into microtiter plates. After an incubation period, the cells were stained with fluorescent dyes sensitive to the transmembrane potential. The test compounds were added to the microtiter plate. The cells were stimulated with either a chemical or electrical means ti evoke a NaV dependent membrane potential change from unblocked channels, which was detected and measured with trans-membrane potential-sensitive dyes. Antagonists were detected as a decreased membrane potential response to the stimulus. The optical membrane potential assay utilized voltage-sensitive FRET sensors described by Gonzalez and Tsien (See, Gonzalez, J. E. and R. Y. Tsien (1995) “Voltage sensing by fluorescence resonance energy transfer in single cells” Biophys J 69(4): 1272-80, and Gonzalez, J. E. and R. Y. Tsien (1997) “Improved indicators of cell membrane potential that use fluorescence resonance energy transfer” Chem Biol 4(4): 269-77) in combination with instrumentation for measuring fluorescence changes such as the Voltage/Ion Probe Reader (VIPR®) (See, Gonzalez, J. E., K. Oades, et al. (1999) “Cell-based assays and instrumentation for screening ion-channel targets” Drug Discov Today 4(9): 431-439).
The following is an example of how NaV1.3 inhibition activity is measured using the optical membrane potential method #2. Other subtypes are performed in an analogous mode in a cell line expressing the NaV of interest.
HEK293 cells stably expressing NaV1.3 are plated into 96-well microtiter plates. After an appropriate incubation period, the cells are stained with the voltage sensitive dyes CC2-DMPE/DiSBAC2(3) as follows.
2X CC2-DMPE=20 μM CC2-DMPE: 10 mM CC2-DMPE is vortexed with an equivalent volume of 10% pluronic, followed by vortexing in required amount of HBSS containing 10 mM HEPES. Each cell plate will require 5 mL of 2X CC2-DMPE. 50 μL of 2X CC2-DMPE is to wells containing washed cells, resulting in a 10 μM final staining concentration. The cells are stained for 30 minutes in the dark at RT.
2X DISBAC2(3) with ABSC1=6 μM DISBAC2(3) and 1 mM ABSC1: The required amount of 10 mM DISBAC2(3) is added to a 50 ml conical tube and mixed with 1 μL 10% pluronic for each mL of solution to be made and vortexed together. Then HBSS/HEPES is added to make up 2X solution. Finally, the ABSC1 is added.
The 2X DiSBAC2(3) solution can be used to solvate compound plates. Note that compound plates are made at 2X drug concentration. Wash stained plate again, leaving residual volume of 50 μL. Add 50 uL/well of the 2X DiSBAC2(3) w/ABSC1. Stain for 30 minutes in the dark at RT.
The electrical stimulation instrument and methods of use are described in ION Channel Assay Methods PCT/US01/21652, herein incorporated by reference. The instrument comprises a microtiter plate handler, an optical system for exciting the coumarin dye while simultaneously recording the coumarin and oxonol emissions, a waveform generator, a current- or voltage-controlled amplifier, and a device for inserting electrodes in well. Under integrated computer control, this instrument passes user-programmed electrical stimulus protocols to cells within the wells of the microtiter plate.
Assay Protocol • 1. Insert or use electrodes into each well to be assayed. • 2. Use the current-controlled amplifier to deliver stimulation wave pulses for 3 s. Two seconds of pre-stimulus recording are performed to obtain the un-stimulated intensities. Five seconds of post-stimulation recording are performed to examine the relaxation to the resting state.
Data are analyzed and reported as normalized ratios of background-subtracted emission intensities measured in the 460 nm and 580 nm channels. Background intensities are then subtracted from each assay channel. […]

NaV1.1 = NaV1.1 (Homo sapiens, UniProt P35498); settings: read-out: TTX IC50; cited from earlier work
NaV1.8 [2] = molecular target: T1, NaV1.8; settings: read-out: TTX IC50; cited from earlier work
NaV1.9 = NaV1.9 (Homo sapiens, UniProt Q9UI33); settings: read-out: TTX IC50; cited from earlier work
NaV1.3 = NaV1.3 (Homo sapiens, UniProt Q9NY46); settings: read-out: TTX IC50; cited from earlier work
NaV1.6 = NaV1.6 (Homo sapiens, UniProt Q9UQD0); settings: read-out: TTX IC50; cited from earlier work
NaV1.2 = NaV1.2 (Homo sapiens, UniProt Q99250); settings: read-out: TTX IC50; cited from earlier work
NaV1.2, sequence (Q99250 whole entry, looked up): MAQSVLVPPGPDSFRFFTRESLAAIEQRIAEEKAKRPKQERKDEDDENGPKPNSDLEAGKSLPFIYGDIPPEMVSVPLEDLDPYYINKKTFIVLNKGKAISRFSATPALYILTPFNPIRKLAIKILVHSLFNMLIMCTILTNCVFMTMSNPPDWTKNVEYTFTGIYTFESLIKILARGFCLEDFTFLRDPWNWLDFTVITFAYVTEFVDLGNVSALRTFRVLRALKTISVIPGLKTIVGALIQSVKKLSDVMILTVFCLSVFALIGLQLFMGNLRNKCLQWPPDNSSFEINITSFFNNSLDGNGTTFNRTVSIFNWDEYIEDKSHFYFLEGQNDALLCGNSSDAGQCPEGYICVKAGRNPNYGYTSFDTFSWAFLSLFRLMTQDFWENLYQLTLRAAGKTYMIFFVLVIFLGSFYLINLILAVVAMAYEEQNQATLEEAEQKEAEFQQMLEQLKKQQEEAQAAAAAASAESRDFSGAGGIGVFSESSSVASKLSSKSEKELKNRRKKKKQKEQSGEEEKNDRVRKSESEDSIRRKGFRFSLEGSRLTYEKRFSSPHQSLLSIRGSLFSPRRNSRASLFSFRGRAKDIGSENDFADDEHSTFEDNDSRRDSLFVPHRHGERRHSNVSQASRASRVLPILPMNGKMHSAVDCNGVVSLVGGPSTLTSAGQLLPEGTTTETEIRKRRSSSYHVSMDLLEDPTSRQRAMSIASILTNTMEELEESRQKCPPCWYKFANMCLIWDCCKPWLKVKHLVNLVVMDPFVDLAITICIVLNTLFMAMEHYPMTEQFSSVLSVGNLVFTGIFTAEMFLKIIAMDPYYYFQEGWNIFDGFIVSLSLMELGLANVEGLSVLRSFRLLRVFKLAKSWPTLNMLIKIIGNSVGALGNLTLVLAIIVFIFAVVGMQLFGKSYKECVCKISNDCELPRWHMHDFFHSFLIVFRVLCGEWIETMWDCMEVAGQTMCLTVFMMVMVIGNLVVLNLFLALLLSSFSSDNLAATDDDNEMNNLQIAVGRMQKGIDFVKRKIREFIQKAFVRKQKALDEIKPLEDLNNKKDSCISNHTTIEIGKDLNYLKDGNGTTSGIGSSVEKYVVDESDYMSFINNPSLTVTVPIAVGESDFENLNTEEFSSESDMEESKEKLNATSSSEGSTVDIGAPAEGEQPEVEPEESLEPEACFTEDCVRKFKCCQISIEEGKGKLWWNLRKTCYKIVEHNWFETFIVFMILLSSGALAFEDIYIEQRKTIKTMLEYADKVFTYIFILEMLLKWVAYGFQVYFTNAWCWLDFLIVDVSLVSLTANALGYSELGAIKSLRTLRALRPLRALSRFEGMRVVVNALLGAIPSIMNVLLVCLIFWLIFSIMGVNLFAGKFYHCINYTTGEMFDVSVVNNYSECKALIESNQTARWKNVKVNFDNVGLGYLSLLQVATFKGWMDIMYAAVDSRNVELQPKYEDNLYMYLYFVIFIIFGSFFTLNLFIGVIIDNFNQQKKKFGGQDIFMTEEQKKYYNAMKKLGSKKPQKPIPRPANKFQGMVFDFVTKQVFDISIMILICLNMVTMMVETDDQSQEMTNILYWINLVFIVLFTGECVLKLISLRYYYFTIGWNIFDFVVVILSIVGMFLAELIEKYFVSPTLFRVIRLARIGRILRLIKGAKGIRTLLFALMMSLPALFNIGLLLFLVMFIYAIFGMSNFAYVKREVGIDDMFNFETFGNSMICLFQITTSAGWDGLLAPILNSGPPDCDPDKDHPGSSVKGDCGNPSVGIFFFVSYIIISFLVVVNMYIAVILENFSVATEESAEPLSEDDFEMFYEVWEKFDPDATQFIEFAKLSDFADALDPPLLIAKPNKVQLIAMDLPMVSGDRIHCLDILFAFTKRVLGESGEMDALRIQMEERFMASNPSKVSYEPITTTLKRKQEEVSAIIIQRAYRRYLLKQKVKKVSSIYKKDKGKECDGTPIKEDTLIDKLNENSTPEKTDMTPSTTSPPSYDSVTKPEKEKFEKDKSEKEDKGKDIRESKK

T1 sequence (Q9Y5Y9 whole entry, looked up): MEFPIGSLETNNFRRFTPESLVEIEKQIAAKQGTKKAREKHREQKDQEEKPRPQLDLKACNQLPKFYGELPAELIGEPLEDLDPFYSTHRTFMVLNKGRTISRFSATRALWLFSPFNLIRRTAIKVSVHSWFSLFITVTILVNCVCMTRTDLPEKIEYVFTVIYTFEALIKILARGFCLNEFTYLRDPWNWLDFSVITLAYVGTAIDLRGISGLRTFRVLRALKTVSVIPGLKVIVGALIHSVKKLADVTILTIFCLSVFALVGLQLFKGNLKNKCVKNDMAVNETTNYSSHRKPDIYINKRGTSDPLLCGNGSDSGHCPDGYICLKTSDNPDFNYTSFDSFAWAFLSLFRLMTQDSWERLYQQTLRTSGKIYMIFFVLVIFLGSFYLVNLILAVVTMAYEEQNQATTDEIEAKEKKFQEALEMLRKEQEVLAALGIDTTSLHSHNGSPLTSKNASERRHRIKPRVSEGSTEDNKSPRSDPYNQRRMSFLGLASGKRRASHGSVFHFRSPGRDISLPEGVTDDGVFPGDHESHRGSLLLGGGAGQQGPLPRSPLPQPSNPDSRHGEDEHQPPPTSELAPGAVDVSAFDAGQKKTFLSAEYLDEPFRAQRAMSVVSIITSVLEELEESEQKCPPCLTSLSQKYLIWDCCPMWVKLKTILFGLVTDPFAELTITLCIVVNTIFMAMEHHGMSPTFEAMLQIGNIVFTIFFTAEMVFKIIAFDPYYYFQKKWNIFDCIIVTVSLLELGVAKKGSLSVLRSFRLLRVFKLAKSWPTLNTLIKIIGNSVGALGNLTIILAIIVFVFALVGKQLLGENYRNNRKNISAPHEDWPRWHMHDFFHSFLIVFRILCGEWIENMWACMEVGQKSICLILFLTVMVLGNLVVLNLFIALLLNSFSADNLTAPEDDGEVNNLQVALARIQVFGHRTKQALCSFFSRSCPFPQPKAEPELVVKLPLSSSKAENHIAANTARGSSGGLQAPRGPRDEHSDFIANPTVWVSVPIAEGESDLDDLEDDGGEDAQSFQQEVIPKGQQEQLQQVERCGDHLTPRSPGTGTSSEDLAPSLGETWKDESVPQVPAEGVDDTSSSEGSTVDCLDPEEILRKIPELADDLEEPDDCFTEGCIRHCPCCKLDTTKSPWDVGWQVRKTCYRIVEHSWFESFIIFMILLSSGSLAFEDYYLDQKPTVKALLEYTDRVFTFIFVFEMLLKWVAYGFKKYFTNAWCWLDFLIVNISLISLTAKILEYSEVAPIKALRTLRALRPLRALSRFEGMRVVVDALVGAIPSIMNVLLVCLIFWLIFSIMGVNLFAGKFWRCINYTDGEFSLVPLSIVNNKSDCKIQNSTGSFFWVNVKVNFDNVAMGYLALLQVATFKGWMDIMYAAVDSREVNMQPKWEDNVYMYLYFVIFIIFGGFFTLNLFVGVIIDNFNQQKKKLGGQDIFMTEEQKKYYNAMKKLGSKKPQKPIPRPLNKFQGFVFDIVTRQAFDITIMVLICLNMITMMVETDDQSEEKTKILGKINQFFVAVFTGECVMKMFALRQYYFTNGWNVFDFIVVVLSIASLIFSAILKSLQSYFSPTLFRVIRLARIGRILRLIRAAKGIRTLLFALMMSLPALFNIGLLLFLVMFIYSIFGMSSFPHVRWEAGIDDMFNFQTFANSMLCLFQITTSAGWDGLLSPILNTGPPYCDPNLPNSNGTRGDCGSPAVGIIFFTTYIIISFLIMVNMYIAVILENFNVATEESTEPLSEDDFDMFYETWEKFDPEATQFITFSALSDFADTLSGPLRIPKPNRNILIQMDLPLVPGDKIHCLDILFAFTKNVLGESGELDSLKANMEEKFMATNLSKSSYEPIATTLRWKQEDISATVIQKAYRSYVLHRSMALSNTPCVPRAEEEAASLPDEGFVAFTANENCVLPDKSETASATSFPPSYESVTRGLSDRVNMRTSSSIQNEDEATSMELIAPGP

Structure (SMILES) | IC50 (NaV1.8 [1]) [nM] | further results
CC(=O)c1ccc(Oc2cc(C(C)(C)C)ccc2C(=O)Nc2cccc(S(N)(=O)=O)c2)cc1 [Compound 128] | < 2000 | –
CC(C)(C)c1ccc(C(=O)Nc2cccc(S(N)(=O)=O)c2)c(Oc2cc(C(F)(F)F)ncn2)c1 [Compound 129] | > 10000 | –
CC(C)(C)c1ccc(C(=O)Nc2cccc(S(N)(=O)=O)c2)c(Oc2ccc(C#N)cc2)c1 [Compound 130] | < 2000 | –
CCCOc1ccccc1C(=O)Nc1cccc(S(N)(=O)=O)c1 [Compound 131] | > 10000 | –
CC(C)(C)c1ccc(C(=O)Nc2cccc(S(N)(=O)=O)c2)c(Oc2cccc(F)c2)c1 [Compound 132] | < 2000 | –
COc1ccc(C(=O)Nc2cccc(S(N)(=O)=O)c2)c(C(F)(F)F)c1 [Compound 133] | > 10000 | –
CC(C)(C)c1ccc(C(=O)Nc2cccc(S(N)(=O)=O)c2)c(Oc2cccc(C(F)(F)F)c2)c1 [Compound 134] | < 2000 | –
CC(=O)c1cccc(Oc2cc(C(C)(C)C)ccc2C(=O)Nc2cccc(S(N)(=O)=O)c2)c1 [Compound 135] | < 2000 | –
CC(C)(C)c1ccc(C(=O)Nc2cccc(S(N)(=O)=O)c2)c(Oc2cccc(N3CCOCC3)c2)c1 [Compound 136] | > 10000 | –
CCc1ccccc1C(=O)Nc1cccc(S(N)(=O)=O)c1 [Compound 137] | > 10000 | –
Cc1ncccc1Oc1cc(C(F)(F)F)ccc1C(=O)Nc1cccc(S(N)(=O)=O)c1 [Compound 138, 2-(2-methylpyridin-3-yloxy)-N-(3-sulfamoylphenyl)-4-(trifluoromethyl)benzamide] | < 2000 | –
COc1cccc(Oc2cc(C(C)(C)C)ccc2C(=O)Nc2cccc(S(N)(=O)=O)c2)c1 [Compound 139] | 2000 to 10000 | –
COc1cc(Cl)ccc1C(=O)Nc1cccc(S(N)(=O)=O)c1 [Compound 140] | > 10000 | –
COc1ccc(C(=O)Nc2cccc(S(N)(=O)=O)c2)c(C)c1 [Compound 141] | > 10000 | –
Cc1ccc(C(=O)Nc2cccc(S(N)(=O)=O)c2)c(Br)c1 [Compound 142] | > 10000 | –
CC(C)(C)c1ccc(C(=O)Nc2cccc(S(N)(=O)=O)c2)c(Oc2ccc(C#N)cc2Cl)c1 [Compound 143] | < 2000 | –
Cc1ccc(Oc2cc(C(C)(C)C)ccc2C(=O)Nc2cccc(S(N)(=O)=O)c2)cn1 [Compound 144] | < 2000 | –
NC1=N[C@H](O)[C@H]2[C@H]3O[C@]4(O)O[C@@H]([C@@H](O)[C@@]2(N1)[C@@H]4O)[C@]3(O)CO [TTX, tetrodotoxin] | – | IC50 (NaV1.1): 10 nM; IC50 (NaV1.8 [2]): > 50000 nM; IC50 (NaV1.9): 1000 nM; IC50 (NaV1.3): 15 nM; IC50 (NaV1.6): 6 nM; IC50 (NaV1.2): 10 nM
